Measured values as given in US8961959B2, “Glucosylceramide synthase inhibitors and therapeutic methods using the same” (The Regents of the University of Michigan, priority 2011, dated 2015).

Experiments:
[1] = target: T1, glucosylceramide synthase (GCS) (Canis lupus familiaris, UniProt A0A8I3MXG6); test: GCS activity, broken cell (MDCK cell homogenate) assay; assay type: biochemical, canine
T1 construct: Madin-Darby canine kidney (MDCK) cell homogenates (120 μg of protein) were incubated; endogenous in cells; host or cells: MDCK (Madin-Darby canine kidney) cell homogenate
T1 sequence (A0A8I3MXG6 1-394): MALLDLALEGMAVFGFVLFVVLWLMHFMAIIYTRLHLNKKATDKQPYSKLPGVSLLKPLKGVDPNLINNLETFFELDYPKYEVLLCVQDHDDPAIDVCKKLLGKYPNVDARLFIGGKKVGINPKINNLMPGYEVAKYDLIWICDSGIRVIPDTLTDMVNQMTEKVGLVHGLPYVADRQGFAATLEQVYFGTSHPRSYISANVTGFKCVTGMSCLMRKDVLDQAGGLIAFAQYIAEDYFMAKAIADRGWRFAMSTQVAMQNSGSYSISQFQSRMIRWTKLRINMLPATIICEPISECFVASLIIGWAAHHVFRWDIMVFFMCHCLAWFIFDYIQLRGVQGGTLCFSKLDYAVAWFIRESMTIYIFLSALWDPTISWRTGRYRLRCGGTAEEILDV
Experimental: Enzyme activity was measured as described previously (9). Madin-Darby canine kidney (MDCK) cell homogenates (120 μg of protein) were incubated with uridine diphosphate-[^3H]glucose (100,000 cpm) and liposomes consisting of 85 μg of octanoylsphingosine, 570 μg of dioleoylphosphatidylcholine, and 100 μg of sodium sulfatide in a 200 μL reaction mixture and kept for 1 h at 37° C.

WT-MDCKII cells = test: GCS inhibition (GlcCer production) in whole wild-type MDCKII cells; assay type: cell-based, canine; settings: Canis lupus familiaris, MDCK-II; inhibition of GlcCer production in whole wild-type MDCKII cells, 24 h; read-out: WT-MDCK IC50
Experimental: Parental (WT-)MDCKII cells and MDCKII cells retrovirally transduced with human MDR-1 cDNA were obtained from the Netherlands Cancer Institute. Both cell lines were routinely maintained in medium consisting of Opti-MEM/F 12 (1:1), 5% FBS, 100 U/mL of penicillin, 100 μg/mL streptomycin and […] L-glutamine. MDCKII cells were newly thawed from frozen ampules every two months. Protein levels of MDR1 in MDR1-MDCKII cells were measured monthly, and MDR1-MDCKII cell passages were immediately terminated when a reduction of MDR1 levels was observed by Western blot using anti-human MDR1 monoclonal antibody (Abcam C219).
(§1) Stock solutions of water-insoluble glycosphingolipid inhibitors (100 mM) were prepared by dissolving each inhibitor into 100% ethanol as previously described (3). The inhibitor-ethanol solutions then were diluted 50× into 2 mM delipidated bovine serum albumin-phosphate buffered saline solution to make water-soluble glycosphingolipid inhibitor-bovine serum albumin complexes. The inhibitor-bovine serum album complexes were sterile-filtered and stored at −20° C. Prior to use, portions of the inhibitor-bovine serum albumin complexes were further diluted with Opti-F12 to make treatment solutions. Equal amounts of bovine serum albumin and ethanol were added into the control cultures. WT and MDR1-MDCKII cells (5×10^5) were seeded into 10-cm culture dishes containing 10 ml of Opti-F12 with 5% FBS. After 24 hours, the medium was replaced with fresh serum-free Opti-F12 medium, and cells were exposed to candidate GCS inhibitors at concentrations of 0, 1, 3, 10, 30, 100 and 300 nM for 24 hours.
(§2) Following inhibitor treatment, whole cellular lipids of wild type and MDR1-MDCKII cells were extracted as previously described in detail (10). Briefly, cells were washed with ice-cold phosphate buffered saline, fixed by methanol, and collected with rubber scraper. Chloroform was then added to yield a theoretical ratio of chloroform:methanol:water at 1:2:0.8 (v/v/v) to form a mono-phase. Cell debris and proteins were removed by centrifugation at 2200×g for 30 min. The supernatants were portioned by adding chloroform and 0.9% NaCl. The lower organic phases containing neutral glycosphingolipids lipids were washed with methanol and 0.9% NaCl, and subjected to base- and acid-hydrolysis (10). A portion of purified glycosphingolipids normalized to 100 nmol of total phospholipids was analyzed by high performance thin layer chromatography. The thin layer chromatography separations were processed twice. The plate pretreated with 1% sodium borate was first developed in a solvent system consisting of chloroform/methanol (98/2, v/v). After air drying, the plate was then developed in a solvent system containing chloroform/methanol/water (70/30/4, v/v/v). The levels of glucosylceramide were detected by charring with 8% cupric sulfate in 8% phosphoric acid, and quantified by densitometric scanning using ImageJ, NIH Image. Image data was analyzed, and the IC50 of each inhibitor was calculated using GraphPad Prism (version 5.03).

MDR1-MDCKII cells = test: GCS inhibition (GlcCer production) in MDCKII cells stably expressing human MDR1; assay type: cell-based, canine; settings: for IC50: Canis lupus familiaris, inhibition of GlcCer production in MDCKII cells stably expressing human MDR1, 24 h, read-out: MDR-MDCK IC50; for MDR/WT: ratio of MDR1-MDCKII IC50 divided by WT-MDCKII IC50
Experimental: Parental (WT-)MDCKII cells and MDCKII cells retrovirally transduced with human MDR-1 cDNA were obtained from the Netherlands Cancer Institute. Both cell lines were routinely maintained in medium consisting of Opti-MEM/F 12 (1:1), 5% FBS, 100 U/mL of penicillin, 100 μg/mL streptomycin and […] L-glutamine. MDCKII cells were newly thawed from frozen ampules every two months.
as §1, with “After 24 hours, the medium was replaced with fresh serum-free Opti-F12 medium, and cells were exposed to candidate GCS inhibitors at concentrations of 0, 1, 3, 10, 30, 100 and 300 nM for 24 hours.” left out
as §2, with “Image.” for “Image. Image data was analyzed, and the IC50 of each inhibitor was calculated using GraphPad Prism (version 5.03).”

MDR1 = target: T2, MDR1 (Homo sapiens, UniProt P08183); test: [3H]Vinblastine transport in MDR1-MDCKII cells; assay type: cell-based; settings: 1-100 μM, 2 h, relative to vehicle
T2 construct: host or cells: MDCKII (canine kidney) cells retrovirally transduced with human MDR-1 cDNA
T2 sequence (P08183 whole entry): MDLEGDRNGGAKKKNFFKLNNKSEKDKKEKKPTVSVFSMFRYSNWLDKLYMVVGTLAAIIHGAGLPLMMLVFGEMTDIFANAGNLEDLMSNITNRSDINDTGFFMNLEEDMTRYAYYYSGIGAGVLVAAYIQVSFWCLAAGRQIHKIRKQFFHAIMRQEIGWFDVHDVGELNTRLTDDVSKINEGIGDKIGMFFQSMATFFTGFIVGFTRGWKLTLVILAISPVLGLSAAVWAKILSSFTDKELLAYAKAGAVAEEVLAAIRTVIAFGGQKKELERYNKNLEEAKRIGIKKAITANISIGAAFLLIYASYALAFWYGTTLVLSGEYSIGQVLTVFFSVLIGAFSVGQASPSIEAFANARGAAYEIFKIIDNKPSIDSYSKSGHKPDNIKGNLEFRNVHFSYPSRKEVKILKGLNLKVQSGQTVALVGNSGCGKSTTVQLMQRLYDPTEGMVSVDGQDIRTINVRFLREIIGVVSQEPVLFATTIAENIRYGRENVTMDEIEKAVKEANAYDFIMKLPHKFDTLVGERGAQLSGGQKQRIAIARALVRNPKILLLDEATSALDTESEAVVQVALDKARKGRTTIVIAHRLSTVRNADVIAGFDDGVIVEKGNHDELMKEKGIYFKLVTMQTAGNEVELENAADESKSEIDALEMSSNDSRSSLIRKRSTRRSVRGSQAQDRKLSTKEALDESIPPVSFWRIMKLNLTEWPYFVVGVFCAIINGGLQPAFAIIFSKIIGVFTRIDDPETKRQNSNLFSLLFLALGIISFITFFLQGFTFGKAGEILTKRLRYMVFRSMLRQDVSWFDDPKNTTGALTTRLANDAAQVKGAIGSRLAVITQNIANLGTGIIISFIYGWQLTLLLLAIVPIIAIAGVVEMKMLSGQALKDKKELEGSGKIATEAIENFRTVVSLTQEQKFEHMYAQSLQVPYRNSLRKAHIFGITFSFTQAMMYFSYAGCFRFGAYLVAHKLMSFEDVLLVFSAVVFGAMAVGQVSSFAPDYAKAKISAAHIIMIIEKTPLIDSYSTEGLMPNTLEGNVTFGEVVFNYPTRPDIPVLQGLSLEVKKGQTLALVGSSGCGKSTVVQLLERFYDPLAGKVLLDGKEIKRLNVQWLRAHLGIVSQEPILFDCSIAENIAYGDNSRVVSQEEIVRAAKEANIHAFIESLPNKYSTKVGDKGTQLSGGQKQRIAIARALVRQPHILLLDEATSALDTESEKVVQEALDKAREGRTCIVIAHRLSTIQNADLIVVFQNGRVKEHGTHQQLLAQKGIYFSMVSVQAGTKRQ
Experimental: MDR1- and WT-MDCKII cells were grown to confluence on Transwell filters (12 well plates) in DMEM+10% FBS. […] Uptake was measured over 2 hours at 37° C. At that time, uptake was stopped by washing each side of the membrane 3× with ice-cold PBS. Vinblastine uptake into the cells, after correction for any remaining adherent extracellular contamination, was calculated as described previously (11). To investigate the effect of experimental drugs on MDR-mediated transport, those compounds were added to the apical chamber (1-100 μM) during vinblastine uptake and the uptake results expressed as a % of that with vehicle alone.

[2] = cited from earlier work

| Structure (SMILES) | IC50 [1] [nM] | [3H]vinblastine uptake into MDR1-MDCKII cells (MDR1) | IC50 (WT-MDCKII cells) [nM] | IC50 (MDR1-MDCKII cells) [nM] | MDR/WT (MDR1-MDCKII cells) | activity in the MDR1-MDCKII line (MDR1-MDCKII cells; in words) | effect on mouse body weight [2] |
| --- | --- | --- | --- | --- | --- | --- | --- |
| O=C(N[C@H](CN1CCCC1)[C@H](O)c1ccc2c(c1)OCCO2)OCc1ccccc1 [Compound 3b] | 144 | – | 7.3 | 47.1 | 6.5 | – | – |
| O=C(Cc1ccccc1)N[C@H](CN1CCCC1)[C@H](O)c1ccc2c(c1)OCCO2 [Compound 3d, N-((1R,2R)-1-(2,3-dihydrobenzo[b][1,4]dioxin-6-yl)-1-hydroxy-3-(pyrrolidin-1-yl)propan-2-yl)-2-phenylacetamido] | > 2000 | – | – | – | – | – | – |
| O=C(/C=C/c1ccccc1)N[C@H](CN1CCCC1)[C@H](O)c1ccc2c(c1)OCCO2 [Compound 3f, N-((1R,2R)-1-(2,3-dihydrobenzo[b][1,4]dioxin-6-yl)-1-hydroxy-3-(pyrrolidin-1-yl)propan-2-yl)cinnamamide] | 379 | – | 80.7 | 389 | 4.8 | – | – |
| CN(C(=O)CCc1ccccc1)[C@H](CN1CCCC1)[C@H](O)c1ccc2c(c1)OCCO2 [Compound 3j, N-((1R,2R)-1-(2,3-dihydrobenzo[b][1,4]dioxin-6-yl)-1-hydroxy-3-(pyrrolidin-1-yl)propan-2-yl)-N-methyl-3-phenylpropanamide] | 158 | – | 59.4 | 1250 | 21 | – | – |
| CCCCN1C[C@H](O)[C@@H](O)[C@H](O)[C@H]1CO [NB-DNJ, N-butyldeoxynojirimycin] | – | – | – | – | – | – | reduce mouse body weight |

Now from value to compound, other results behind:

| IC50 [1] [nM] | [3H]vinblastine uptake into MDR1-MDCKII cells (MDR1) | Structure (SMILES) | IC50 (WT-MDCKII cells) [nM] | IC50 (MDR1-MDCKII cells) [nM] | MDR/WT (MDR1-MDCKII cells) | activity in the MDR1-MDCKII line (MDR1-MDCKII cells; in words) | effect on mouse body weight [2] |
| --- | --- | --- | --- | --- | --- | --- | --- |
| 134 | – | O=C(CCc1ccccc1)N[C@H](CN1CCCC1)[C@H](O)c1ccc2c(c1)OCCO2 [Compound 3c] | 23.5 | 86.7 | 3.7 | – | – |
| 80 | – | O=C(CCCc1ccccc1)N[C@H](CN1CCCC1)[C@H](O)c1ccc2c(c1)OCCO2 [Compound 3e] | 254 | 1440 | 5.7 | – | – |
| 90 | – | O=C(N[C@H](CN1CCCC1)[C@H](O)c1ccc2c(c1)OCCO2)C1CC1c1ccccc1 (stereo partly drawn) [Compound 3g, N-((1R,2R)-1-(2,3-dihydrobenzo[b][1,4]dioxin-6-yl)-1-hydroxy-3-(pyrrolidin-1-yl)propan-2-yl)-2-phenylcyclopropanecarboxamide] | 27.3 | 78.1 | 2.9 | – | – |
| 107 | dose dependent increase | O=C(N[C@H](CN1CCCC1)[C@H](O)c1ccc2c(c1)OCCO2)C1Cc2ccccc2C1 [Compound 3i, N-((1R,2R)-1-(2,3-dihydrobenzo[b][1,4]dioxin-6-yl)-1-hydroxy-3-(pyrrolidin-1-yl)propan-2-yl)-2,3-dihydro-1H-indene-2-carboxamide] | 151 | 3210 | 21 | loss of activity | – |
